The source of these data is publication PMC4921858, “Structural and functional characterization of the CAP domain of pathogen-related yeast 1 (Pry1) protein” (Scientific Reports, 2016).

Assay [1] has as its target T1, Pathogen-related yeast 1 (Pry1), CAP domain (Pry1CAP) (Saccharomyces cerevisiae, UniProt P47032).
T1 construct: C-terminal CAP domain, Ser151 through Ala296 (Pry1CAP)
T1 sequence (P47032 151-296): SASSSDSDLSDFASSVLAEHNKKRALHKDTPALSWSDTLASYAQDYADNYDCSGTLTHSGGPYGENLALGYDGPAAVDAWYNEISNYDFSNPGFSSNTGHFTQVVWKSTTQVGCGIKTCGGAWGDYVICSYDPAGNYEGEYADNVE
The assay can be described thus: [3H]-cholesterol saturation radioligand binding with purified protein.

In assay [2] the target is CAP domain of pathogen-related yeast protein-1 (Pry1) from Saccharomyces cerevisiae (Saccharomyces cerevisiae). The assay can be described thus: SEC; 20 μg Pry1CAP injected on a Yarra SEC-2000 column, 0.5 ml/min, PBS pH 7.4 as mobile phase, calibrated with Bio-Rad gel filtration standards, in triplicate.

By Kd is commonly meant a measure of binding affinity in units of concentration. In turn, `CC(C)CCC[C@@H](C)[C@H]1CC[C@H]2[C@@H]3CC=C4C[C@@H](O)CC[C@]4(C)[C@H]3CC[C@]12C` [cholesterol] came in with a Kd in assay [1] of 2.08 ± 0.07 µM.

A word on the stoichiometry N: it is a count of units in the complex or per binding partner. Consider “CAP domain of pathogen-related yeast protein-1 (Pry1) from Saccharomyces cerevisiae (domain or fragment)”, for which, in assay [2], the stoichiometry N is 2.
